Assay [1] concerns LNCaP (human prostate carcinoma). Briefly: Cell proliferation (MTS) assay, LNCaP. The assay is classed as cell-based. The note with it: three days treatment; for IC50: Homo sapiens, LNCaP, 72 h. The method in brief:
(§1)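 Cells plated at about 3000 per well in RPMI-1640/10% FBS were dosed with compound one day later. Viability was read by MTS conversion (absorbance 490 nm, 1–2 h) three days after treatment began. Effect is expressed as percent of vehicle-treated growth on the same plate.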

Assay [2] concerns MDA435 (human breast adenocarcinoma). Briefly: Cell proliferation (MTS) assay, MDA435. It counts as cell-based. The note with it: three days treatment; for IC50: Homo sapiens, MDA435, 72 h. The method in brief:
as §1

The target in the next assay is T1, Human TOR (Homo sapiens, UniProt P42345).
T1 construct: FLAG
The assay is described as follows: Human TOR (mTOR) kinase assay, DELFIA format. It counts as biochemical. The conditions noted are these: for IC50: Table 2. The method in brief: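 Purified FLAG-TOR (800 ng/mL) phosphorylates His6-S6K ([…]) with […] ATP in Hepes pH 7.4 buffer containing MnCl2, 2 h at room temperature. Phospho-Thr389 S6K detected by DELFIA using Europium-labelled anti-P(T389)-p70S6K antibody; enzyme inhibition calculated from signal.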

Another assay deals with T2, PI3K.
T2 construct: PI3K FP IC50
The assay is described as follows: Fluorescence polarization assay for PI3K. The assay is classed as biochemical. The note with it: for IC50: Table 2. The method in brief:
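PI3K was preincubated with compound at 1% DMSO final, then reacted with PIP2/ATP substrate for 30-60 min. The reaction was stopped with a detector mix giving 10 nM red probe and 70 nM GST-GRP. Fluorescence polarization (mP, Tamra filters) was read 30-90 min later and IC50 determined.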
(Polarisation of emitted light reports the rotation of a fluorescent probe.)

Assay [3] concerns DU145 (human prostate carcinoma/lymphocytic leukemia). Briefly: Cell proliferation (MTS) assay, DU145. It counts as cell-based. The note with it: three days treatment; for IC50: Homo sapiens, DU-145, 72 h. The method in brief:
as §1

The subject of assay [4] is MDA468 (human breast cancer cell). Briefly: Cell proliferation (MTS) assay, MDA468. The assay is classed as cell-based. The note with it: three days treatment; for IC50: Homo sapiens, 72 h. The method in brief: as §1
Assay [5] deals with phosphor-AKT (S473) in Rat1 cells. Briefly: Rat1-IGF1 assay (IGF-1 induced phospho-AKT immunoblot). It counts as cell-based, rat. The note with it: for IC50: Rattus norvegicus. The method in brief:
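After 24 h serum starvation, Rat1 cells got vehicle or varying 17-HWT concentrations for 2 hours, then IGF-1 (100 ng/mL) for 30 minutes. Lysates immunoblotted for phospho-AKT (S473) and total AKT.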

Experimental findings from US7666901B2, “Analogs of 17-hydroxywortmannin as PI3K inhibitors” (Wyeth, priority 2004, dated 2010) are described below.

In brackets after ≈: the same amount, converted by molar mass.

As for `COCC1OC(=O)C(=CN(C)CCCN2CCN(c3ccc(OC)cc3)CC2)C2=C(O)C(=O)C3=C(C(OC(C)=O)CC4(C)C(O)CCC34)C21C` (stereo not shown) [Compound 25, Acetic acid 6,17-dihydroxy-1-methoxymethyl-4-[({3-[4-(4-methoxy-phenyl)-piperazin-1-yl]-propyl}-methyl-amino)-methylene]-10,13-dimethyl-3,7-dioxo-1,3,4,7,10,11,12,13,14,15,16,17-dodecahydro-2-oxa-cyclopenta[a]phenanthren-11-yl ester], the half-maximal inhibitory concentration (IC50) in assay [1] (Table 2) was 0.43 µg/mL (≈ 0.62 µM); in assay [2] (Table 2), 16 µg/mL (≈ 23.1 µM); against Human TOR it was 1350 nM; in the assay with PI3K, 15 nM; in assay [3] (Table 2) it was 20.5 µg/mL (≈ 29.5 µM); in assay [4] (Table 2) it was 4.3 µg/mL (≈ 6.2 µM). For the same compound, the half-inhibitory concentration (IC50) in assay [5] (Table 2) was found to be 0.02 µg/mL (≈ 0.0288 µM).
`COCC1OC(=O)C(=CN(CCO)CCO)C2=C(O)C(=O)C3=C(C(OC(C)=O)CC4(C)C(O)CCC34)C21C` (stereo not shown) [Compound 19, Acetic acid 4-{[bis-(2-hydroxy-ethyl)-amino]-methylene}-6,17-dihydroxy-1-methoxymethyl-10,13-dimethyl-3,7-dioxo-1,3,4,7,10,11,12,13,14,15,16,17-dodecahydro-2-oxa-cyclopenta[a]phenanthren-11-yl ester]: the IC50 was 0.07 µg/mL (≈ 0.131 µM) in assay [1] (Table 2); 6 µg/mL (≈ 11.2 µM) in assay [2] (Table 2); greater than 18700 nM on Human TOR; 918 nM in the assay with PI3K; 1.7 µg/mL (≈ 3.17 µM) in assay [3] (Table 2); 1.2 µg/mL (≈ 2.24 µM) in assay [4] (Table 2). Moreover, the concentration for half-maximal inhibition (IC50) in assay [5] (Table 2) is greater than 0.1 µg/mL.
For `COCC1OC(=O)C(=CN2CCCC2C(=O)OC)C2=C(O)C(=O)C3=C(C(OC(C)=O)CC4(C)C(O)CCC34)C21C` (stereo not shown) [Compound 40, 1-(11-Acetoxy-6,17-dihydroxy-1-methoxymethyl-10,13-dimethyl-3,7-dioxo-1,7,10,11,12,13,14,15,16,17-decahydro-2-oxa-cyclopenta[a]phenanthren-4-ylidenemethyl)-pyrrolidine-2-carboxylic acid methyl ester], the “LNCaP IC50” value in assay [1] (Table 2) was determined as 0.085 µg/mL. The “MDA435 IC50” value in assay [2] (Table 2) was determined as 5.5 µg/mL. In addition, the half-inhibitory concentration (IC50) was greater than 17900 nM on Human TOR and 444 nM with PI3K. For the same compound, the “DU145 IC50” value in assay [3] (Table 2) is 1.85 µg/mL. Also, in assay [4] (Table 2), the “MDA468 IC50” value was found to be 0.75 µg/mL. In addition, in assay [5] (Table 2), the “Rat1-IGF1 IC50” value is reported as >0.1(hint) μg/ml.
As for `COCC1OC(=O)C(=CN2CCCC2C(=O)OC)C2=C(O)C(=O)C3=C(C(OC(C)=O)CC4(C)C(O)CCC34)C21C` (stereo not shown) [Compound 39, 1-(11-Acetoxy-6,17-dihydroxy-1-methoxymethyl-10,13-dimethyl-3,7-dioxo-1,7,10,11,12,13,14,15,16,17-decahydro-2-oxa-cyclopenta[a]phenanthren-4-ylidenemethyl)-pyrrolidine-2-carboxylic acid methyl ester], the IC50 in assay [1] (Table 2) was 0.043 µg/mL (≈ 0.0768 µM); in assay [2] (Table 2), 4 µg/mL (≈ 7.15 µM); against Human TOR, 12300 nM; in the assay on PI3K, 770 nM; in assay [3] (Table 2), 2.4 µg/mL (≈ 4.29 µM); in assay [4] (Table 2) it was 1.2 µg/mL (≈ 2.14 µM). The same compound returned a half-maximal inhibitory concentration (IC50) in assay [5] (Table 2) of 0.1 µg/mL (≈ 0.179 µM).
In the case of `COCC1OC(=O)C(=CN(C)CC(O)CO)C2=C(O)C(=O)C3=C(C(OC(C)=O)CC4(C)C(O)CCC34)C21C` (stereo not shown) [Compound 36, Acetic acid 4-{[(2,3-dihydroxy-propyl)-methyl-amino]-methylene}-6,17-dihydroxy-1-methoxymethyl-10,13-dimethyl-3,7-dioxo-1,3,4,7,10,11,12,13,14,15,16,17-dodecahydro-2-oxa-cyclopenta[a]phenanthren-11-yl ester], the IC50 was 0.09 µg/mL (≈ 0.168 µM) in assay [1] (Table 2); 5 µg/mL (≈ 9.34 µM) in assay [2] (Table 2); 2990 nM against Human TOR; 199 nM in the assay on PI3K; 12 µg/mL (≈ 22.4 µM) in assay [3] (Table 2); 2.3 µg/mL (≈ 4.29 µM) in assay [4] (Table 2). In addition, the half-inhibitory concentration (IC50) in assay [5] (Table 2) was determined as 0.1 µg/mL (≈ 0.187 µM).
As for “(1E,4S,4aR,5R,6aS,7S)-7,11-dihydroxy-4-(methoxymethyl)-4a,6a-dimethyl-1-{[methyl(1-methylpyrrolidin-3-yl)amino]methylene}-2,10-dioxo-1,2,4,4a,5,6,6a,7,8,9,9a,10-dodecahydroindeno[4,5-h]isochromen-5-yl acetate [Compound 6]”, the “LNCaP IC50” value in assay [1] (Table 1) worked out at 0.55 µg/mL. Moreover, in assay [2] (Table 1), the “MDA435 IC50” value was greater than 15 µg/mL. Besides, the “TOR IC50” value at Human TOR (Table 1) was 0.66 µg/mL. Moreover, in the assay on PI3K (Table 1), the “PI3K FP IC50” value is 0.07 µg/mL. Moreover, the “DU145 IC50” value in assay [3] (Table 1) stood at 13 µg/mL. Also, the “MDA468 IC50” value in assay [4] (Table 1) amounted to 2.01 µg/mL. The “Rat1-IGF1 IC50” value in assay [5] (Table 1) was determined as 0.02 µg/mL.
Take `COCC1OC(=O)C(=CN2CCN(CCCN(C)C)CC2)C2=C(O)C(=O)C3=C(C(OC(C)=O)CC4(C)C(O)CCC34)C21C` (stereo not shown) [Compound 32, Acetic acid 4-[4-(3-dimethylamino-propyl)-piperazin-1-ylmethylene]-6,17-dihydroxy-1-methoxymethyl-10,13-dimethyl-3,7-dioxo-1,3,4,7,10,11,12,13,14,15,16,17-dodecahydro-2-oxa-cyclopenta[a]phenanthren-11-yl ester]: the IC50 was 0.5 µg/mL (≈ 0.831 µM) in assay [1] (Table 2); 22 µg/mL (≈ 36.6 µM) in assay [2] (Table 2); 249 nM on Human TOR; 39 nM in the assay on PI3K; 20 µg/mL (≈ 33.2 µM) in assay [3] (Table 2); 4.1 µg/mL (≈ 6.81 µM) in assay [4] (Table 2). The IC50 in assay [5] (Table 2) was found to be 0.1 µg/mL (≈ 0.166 µM).
Consider `COCC1OC(=O)C(=CN(Cc2ccccc2)CC23CCCN(CCC2)C3)C2=C(O)C(=O)C3=C(C(OC(C)=O)CC4(C)C(O)CCC34)C21C` (stereo not shown) [Compound 29, Acetic acid 4-{[(1-aza-bicyclo[3.3.1]non-5-ylmethyl)-benzyl-amino]-methylene}-6,17-dihydroxy-1-methoxymethyl-10,13-dimethyl-3,7-dioxo-1,3,4,7,10,11,12,13,14,15,16,17-dodecahydro-2-oxa-cyclopenta[a]phenanthren-11-yl ester], for which the concentration for half-maximal inhibition (IC50) in assay [1] (Table 2) was 1.8 µg/mL (≈ 2.67 µM); in assay [2] (Table 2) it was greater than 30 µg/mL; against Human TOR, greater than 14800 nM; with PI3K, 373 nM; in assay [3] (Table 2), 30 µg/mL (≈ 44.5 µM); in assay [4] (Table 2) it was 15 µg/mL (≈ 22.2 µM). The compound also yielded an IC50 in assay [5] (Table 2) greater than 0.1 µg/mL.
Regarding `COCC1OC(=O)C(=CN2CCN(CCCN3CCOCC3)CC2)C2=C(O)C(=O)C3=C(C(OC(C)=O)CC4(C)C(O)CCC34)C21C` (stereo not shown) [Compound 30, Acetic acid 6,17-dihydroxy-1-methoxymethyl-10,13-dimethyl-4-[4-(3-morpholin-4-yl-propyl)-piperazin-1-ylmethylene]-3,7-dioxo-1,3,4,7,10,11,12,13,14,15,16,17-dodecahydro-2-oxa-cyclopenta[a]phenanthren-11-yl ester], the half-inhibitory concentration (IC50) was 0.41 µg/mL (≈ 0.637 µM) in assay [1] (Table 2); 21 µg/mL (≈ 32.6 µM) in assay [2] (Table 2); 1200 nM on Human TOR; 46 nM in the assay on PI3K; 21 µg/mL (≈ 32.6 µM) in assay [3] (Table 2); 4 µg/mL (≈ 6.21 µM) in assay [4] (Table 2). Further, in assay [5] (Table 2), 0.02 µg/mL (≈ 0.0311 µM) corresponded to half-maximal inhibition (IC50).
For the compound `COCC1OC(=O)C(=CN2CCC2C(=O)O)C2=C(O)C(=O)C3=C(C(OC(C)=O)CC4(C)C(O)CCC34)C21C` (stereo not shown) [Compound 38, 1-(11-Acetoxy-6,17-dihydroxy-1-methoxymethyl-10,13-dimethyl-3,7-dioxo-1,7,10,11,12,13,14,15,16,17-decahydro-2-oxa-cyclopenta[a]phenanthren-4-ylidenemethyl)-azetidine-2-carboxylic acid], the IC50 in assay [1] (Table 2) was 0.06 µg/mL (≈ 0.113 µM); in assay [2] (Table 2), 4 µg/mL (≈ 7.53 µM); at Human TOR, 9590 nM; in the assay on PI3K it was 63 nM; in assay [3] (Table 2), 2.4 µg/mL (≈ 4.52 µM); in assay [4] (Table 2), 1.3 µg/mL (≈ 2.45 µM). The compound further came in with a concentration for half-maximal inhibition (IC50) in assay [5] (Table 2) of 0.1 µg/mL (≈ 0.188 µM).

For orientation: IC50 means the concentration that inhibits the measured activity by half.
